This note sets out measurements from article PMC4163838 (The Biochemical journal, 2014).

By Kd is commonly meant the constant that tells how readily two partners part at equilibrium. By koff is commonly meant the first-order rate constant of dissociation. Read a high koff as fast dissociation.

The target of assay [1] is T1, AKR1D1 (human steroid 5β-reductase) (Homo sapiens, UniProt P51857).
T1 sequence (P51857 1-326): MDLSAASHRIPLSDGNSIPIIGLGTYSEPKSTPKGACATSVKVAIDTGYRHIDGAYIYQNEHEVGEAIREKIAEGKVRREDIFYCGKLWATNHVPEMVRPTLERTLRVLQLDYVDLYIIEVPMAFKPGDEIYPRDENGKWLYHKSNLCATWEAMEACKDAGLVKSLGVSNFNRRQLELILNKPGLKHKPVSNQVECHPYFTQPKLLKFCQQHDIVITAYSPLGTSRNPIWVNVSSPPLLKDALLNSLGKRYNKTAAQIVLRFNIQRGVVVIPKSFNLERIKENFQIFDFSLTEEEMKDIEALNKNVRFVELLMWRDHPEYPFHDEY
The assay is described as follows: fluorescence titration. The assay is classed as binding.

The target of assay [2] is T1, AKR1D1 (human steroid 5β-reductase). Put plainly: stopped-flow binding, energy transfer fluorescence. The conditions noted are these: biphasic binding to free enzyme; 37 °C, pH 6.0, 4 % acetonitrile.
For assay [3] the target is unchanged. The assay is described as follows: stopped-flow competition with excess NADPH, energy transfer fluorescence. The assay is classed as binding. The conditions noted are these: dissociation rate constant from binary complex; 37 °C, pH 6.0, 4 % acetonitrile.

Turning to `CC(C)CCC[C@@H](C)[C@H]1CC[C@H]2[C@@H]3[C@H](O)CC4=CC(=O)CC[C@]4(C)[C@H]3CC[C@]12C` [7α-hydroxycholestenone, 7α-hydroxy-4-cholesten-3-one], binding in assay [1] was characterised by a dissociation constant (Kd) of 1300 ± 100 nM.

In the case of `NC(=O)C1=CN([C@@H]2O[C@H](COP(=O)(O)OP(=O)(O)OC[C@H]3O[C@@H](n4cnc5c(N)ncnc54)[C@H](OP(=O)(O)O)[C@@H]3O)[C@@H](O)[C@H]2O)C=CC1` [NADPH], the “stopped-flow binding, energy transfer fluorescence” value in assay [2] was “AKR1D1 was mixed with NADPH and the process of NADPH binding to AKR1D1 was directly monitored”.

`NC(=O)c1ccc[n+]([C@@H]2O[C@H](COP(=O)(O)OP(=O)(O)OC[C@H]3O[C@@H](n4cnc5c(N)ncnc54)[C@H](OP(=O)(O)O)[C@@H]3O)[C@@H](O)[C@H]2O)c1` [NADP^+]: the koff in assay [3] came out at 0.36 ± 0.01 s⁻¹.

`CC(C)(C)NC(=O)[C@H]1CC[C@H]2[C@@H]3CC[C@H]4NC(=O)C=C[C@]4(C)[C@H]3CC[C@]12C` [finasteride]: binding in assay [1] was characterised by a dissociation constant (Kd) of 1140 ± 90 nM.
